The text below walks through data of patent publication US20140205566A1, “CYCLIC NUCLEUOSIDE DERIVATIVES AND USES THEREOF” (NOVARTIS AG, priority 2012, published 2014).

pEC50: −log10 of the molar value.

A word on the CC50: it is the concentration that lowers cell viability or growth by half. Usually pEC50 stands for the EC50 on a negative log10 scale, so that one unit is a factor of ten.

Holding throughout (type): cell-based
The nature of data set [1]: CCK8 cytotoxicity assay in THP-1 cells. To be noted: human, CCK-8. As for the experimental part: 4 day cytotoxicity assay using THP-1 cells: THP-1 cells grown in suspension were counted and diluted to 8×10^4 cells/ml in RPMI-1640 media supplemented with 10% fetal bovine serum (FBS) and 1% penicillin/streptomycin. 25 ul of the THP-1 containing media consisting of 2000 cells were dispensed in 384-well tissue culture plate and pre-incubated at room temperature for 30 minutes, followed by 37° C., 5% CO2 overnight in the humidified incubator. On the next day, serial-diluted compound plates were prepared and 125 nl of compounds at various concentrations were then dispensed into the tissue culture well (200× dilution). The plates were then transferred to 37° C., 5% CO2 humidified incubator for additional 96 hours. Cytotoxicity was measured by CCK-8 assay. Briefly, CCK-8 was thawed on bench top and diluted 2.5× with the growth media. 35 ul of the pre-diluted CCK-8 was then introduced into each well and the plates were then further incubated in 37° C., 5% CO2 humidified incubator for 3 hours. The absorbance was read by Envision at 450 nm. Dose response curves were calculated as in the previous section (n=2). The CC50 is estimated as the concentration of the compound which will inhibit 50% of the signal. A positive control (puromycin) was used to ensure the quality of the data.
In general terms: Formazan colour is commonly taken as a measure of viable cells.

In data set [2] the test system is dengue virus. As to the kind of experiment: Dengue EC50 determination: PBMC infected with virus/humanized 4G2 antibody complex, plaque reduction assay using BHK cells. To be noted: M.O.I of 1, 48 hours, plaque reduction in BHK cells. As for the experimental part: Cryopreserved PBMC (Peripheral Blood Mononuclear Cell) cells were purchased from AllCells, LLC in USA. The cells were then thawed according to manufacturer's instructions and re-suspended in RPMI medium supplemented with 1% penicillin/streptomycin solution and 10% Fetal Calf serum. The cells were then counted and viability checked (viability should be at least 80%). After centrifuging and removing the media, the cells were diluted to 1×10^7 cells/mL in RPMI medium supplemented with 1% penicillin/streptomycin. 50 μl of the cells were then dispensed into 96-well tissue culture plate resulting in 5×10^5 cells/well. Next, virus with humanized 4G2 mixture was prepared for infection. Briefly, virus (2×10^7 pfu/ml) was mixed with humanized 4G2 antibody with the final antibody concentration of 0.38 μg/ml and incubated for 30 minutes at 4° C. to assist virus/antibody complex formation. The virus-antibody complex was then added to the PBMC at multiplicity of infection (M.O.I) of 1. The mixture of cells, virus and antibody was then further incubated in the plates at 37° C. for an hour in the humidified incubator for virus attachment and infection to take place. Serial diluted compounds were then added to the final media volume of 200 μl with 2% Fetal Calf Serum (final PBMC concentration would be 2.5×10^6 cells/mL). The plates were then incubated at 37° C., 5% CO2 for another 48 hours. The extent of the infection and compound inhibition was measured by plaque reduction assay using BHK cells [RD-2004-80036]. Briefly, supernatants of BHK cells grown in 24-well tissue culture (seeded at 200,000 cells/well the night before) were removed and subjected to 200 μl of diluted supernatants derived from PBMC infection containing serial diluted compounds. After incubating it for 37° C. for 1 hour in the incubator, the supernatants were removed and BHK cells overlaid with RPMI media containing 0.8% methyl-cellulose, 0.5% DMSO, 0.05% sodium bicarbonate, 25 mM HEPES, 2% fetal bovine serum and 1% penicillin/streptomycin solution. After additional 4 days of incubation at 37° C. incubator, the monolayer of BHK cells were fixed with 4% paraformaldehyde, stained with crystal violet and plaques counted. The dose response (n=2) is calculated by Prism from Graphpad software using a mathematical curve fitting analysis called nonlinear regression with four independent parameters. Briefly, the software generates the best fit curve using the formula F(x)=((A−D)/(1+((x/C)̂B)))+D. In this formula, x represents the concentration of the compound, A is the minimum value, B represents the steepness of the curve (sometimes known as Hill slope), C is the inflection point and D is the maximum value. EC50 was estimated as the concentration of the compound which will inhibit 50% of the plaque formation. A positive control (7-deaza-2′-C-acetylene-adenosine) was used to ensure the quality of the data.
(In a plaque reduction assay, fewer plaques than in the control indicate reduced infectivity or spread.)

Data set [3] concerns dengue virus. The data set is described as follows: Intracellular nucleoside triphosphate concentration needed to inhibit 50% of viral production (NTP50) in PBMC. As for the experimental part:
NTP50 is defined as the concentration of the nucleoside triphosphate (NTP) that will inhibit 50% of viral production. The NTP50 experiment was performed using cryopreserved PBMC as described above in the Dengue EC50 determination section. Briefly, PBMC was thawed and incubated in RPMI medium containing 2% Fetal Bovine serum (FBS), 1% Penicillin/Streptomycin supplemented with various concentration of a representative compound of the present invention (e.g., Example 2) up to 100 μM. After the intracellular conversion of Example 2 into corresponding nucleoside triphosphate reached steady state (24 hours at 37° C. in the incubator), the cells were spun down, washed with 0.9% NaCl solution and lyzed in RIPA buffer (50 mM Tris pH 7.5, 150 mM NaCl, 1% NP40) containing with protease and phosphotase inhibitor. The cells were further incubated at room temperature for complete lysis of the cells and the cell debris spun down at 13,000 g in at 4° C. for 20 minutes. The lysate was transferred into […] and the concentration of the nucleoside triphosphate was measured. The concentration of the nucleoside triphosphate was then plotted against the concentration of Example 2 and a curve of the concentration of the nucleoside triphosphate vs incubated Example 2 was generated using Michaelis-Menten Kinetics with the formula Y=A[Example 2]/B+[Example 2] where Y is the concentration of the nucleoside triphosphate and [Example 2] is the concentration of the compound Example 2. A and B were constants determined by best fitting. By EC50 of [Example 2] in the equation, the intracellular concentration of nucleoside triphosphate which corresponds to 50% reduction of the virus (NTP50) can be determined.
Since all compounds of the present invention would be converted to the same nucleoside triphosphate intracellularly (the structure of NTP is shown below), the NTP50 of all compounds of the present invention would be the same regardless which compound was used in the experiment. NTP50 for the compound Example 2 was measured to be 0.0016 μM in PBMC lysate from 1 million cells with 100 μL of lysis buffer. The Mean Corpuscular Volume of PBMC is approximately 0.3×10^−6 μL/per cell=0.3 μL/1 million cells. By using the literature of Simiele, M. et al. Antimicrob. Agents Chemother. 2011 55, 2976-2978, NTP50=0.0016×(100/0.3)=0.53 μM/1 million cells=0.53×0.3/1.0×10^6=0.159×10^−6 μmol/1 million cells. Thus, from the calculation, the intracellular nucleoside triphosphate concentration needed to inhibit 50% of viral production (NTP50) is around ˜200 fmol/1 million cells.

In data set [1], `CCOC(=O)[C@H](C)N[P@@]1(=O)OC[C@H]2O[C@@H](n3cnc4c(OCC)nc(N)nc43)[C@](C)(F)[C@@H]2O1` [Example 1, (S)-ethyl 2-(((2R,4aR,6R,7R,7aR)-6-(2-amino-6-ethoxy-9H-purin-9-yl)-7-fluoro-7-methyl-2-oxidotetrahydro-4H-furo[3,2-d][1,3,2]dioxaphosphinin-2-yl)amino)propanoate] came in with a CC50 at 96 h greater than 50000 nM. In the data set on dengue virus [2], this molecule gave a pEC50 of 6.64.
On to `CCOc1nc(N)nc2c1ncn2[C@@H]1O[C@@H]2CO[P@](=O)(N[C@@H](C)C(=O)OC)O[C@H]2[C@@]1(C)F` [Example 3, (S)-methyl 2-(((2R,4aR,6R,7R,7aR)-6-(2-amino-6-ethoxy-9H-purin-9-yl)-7-fluoro-7-methyl-2-oxidotetrahydro-4H-furo[3,2-d][1,3,2]dioxaphosphinin-2-yl)amino)propanoate], for which, in data set [1], the CC50 at 96 h was greater than 50000 nM. Moreover, the pEC50 in the data set with dengue virus [2] is 6.34.
In the case of `CCOc1nc(N)nc2c1ncn2[C@@H]1O[C@@H]2CO[P@@](=O)(N[C@@H](C)C(=O)OC(C)C)O[C@H]2[C@@]1(C)F` [Example 2, (S)-isopropyl 2-(((2S,4aR,6R,7R,7aR)-6-(2-amino-6-ethoxy-9H-purin-9-yl)-7-fluoro-7-methyl-2-oxidotetrahydro-4H-furo[3,2-d][1,3,2]dioxaphosphinin-2-yl)amino)propanoate], half-maximal cytotoxicity in data set [1] (CC50 at 96 h) was put at 34000 nM. Also, the negative-log EC50 (pEC50) with dengue virus [2] is 7.14. Also, the NTP50 with dengue virus [3] (in PBMC lysate from 1 million cells with 100 μL of lysis buffer) was 0.0016 µM; in the data set with dengue virus [3] (intracellular amount, calculated) it was 0.159×10^−6 μmol/1 million cells; in the data set with dengue virus [3] (intracellular amount, rounded from the calculation), roughly 200 fmol/1 million cells; in the data set with dengue virus [3] (intracellular, corrected with PBMC volume 0.3 μL/1 million cells) it was 0.53 μM/1 million cells.
`CCOc1nc(N)nc2c1ncn2[C@@H]1O[C@@H]2CO[P@@](=O)(N[C@H](C)C(=O)OC(C)C)O[C@H]2[C@@]1(C)F` [Example 6, (R)-isopropyl 2-(((2S,4aR,6R,7R,7aR)-6-(2-amino-6-ethoxy-9H-purin-9-yl)-7-fluoro-7-methyl-2-oxidotetrahydro-4H-furo[3,2-d][1,3,2]dioxaphosphinin-2-yl)amino)propanoate] registered a CC50 at 96 h in data set [1] greater than 50000 nM. In addition, the pEC50 with dengue virus [2] was 6.43.
